From ChEMBL document CHEMBL6071165, “Design, synthesis and biological evaluation of plant-derived miliusol derivatives achieve TNBC profound regression in vivo” (Eur J Med Chem, 2024)
Calls of active or inactive are those of the source. The calls are words filed in the database; no cut-off is given here.

How the values were obtained:
[1] = Toxicity in female BALB/c mouse xenografted with human BT-549 cells assessed as effect on body weight at 5 to 20 mg/kg, sc and measured daily; format: organism-based; conditions: in vivo, dose 5-20 mg/kg
BT-549 [2] = assay: Inhibition of glycolysis in human BT-549 cells assessed as reduction in glucose uptake at 0.5 to 2 uM incubated for 24 hrs followed by 2-NBDG staining based flow cytometric analysis; format: functional, cell-based; conditions: dose 0.5-2 µM
Mitochondrial membrane = assay: Disruption of mitochondrial potential loss in human BT-549 cells assessed as decrease in JC-1 aggregates at 1 uM incubated for 24 hrs by JC-1 staining based flow cytometric analysis (Rvb =98.7%); format: cell membranes; set-up: scale not given: the % may be the effect or the level left
BT-549 [3] = assay: Induction of apoptosis in human BT-549 cells assessed as upregulation of cleavage of caspase-8 expression at 0.5 to 2 uM incubated for 24 hrs by Western blot analysis; format: functional, cell-based; conditions: dose 0.5-2 µM
BT-549 [4] = assay: Induction of apoptosis in human BT-549 cells assessed as upregulation of cleavage of caspase-9 expression at 0.5 to 2 uM incubated for 24 hrs by Western blot analysis; format: functional, cell-based; conditions: dose 0.5-2 µM
[5] = Toxicity in female BALB/c mouse assessed as change in spleen administered subcutaneously measured upto 16 days; format: tissue-based; conditions: in vivo, sc, 384 h, time < 16 day
BT-549 [6] = assay: Antiproliferative activity against human BT-549 cells xenografted in female BALB/c mouse model assessed as increase in E-cadherin level at 5 to 20 mg/kg administered subcutaneously by immunohistochemical staining based microscopic analysis; format: functional, organism-based; conditions: dose 5-20 mg/kg, route sc
BT-549 [7] = assay: Antiproliferative activity against human BT-549 cells xenografted in female BALB/c mouse model assessed as fold change in inhibition of PKM2 expression at 20 mg/kg administered subcutaneously incubated for 24 hrs by Western blot analysis (reference value: 1.05%); format: functional; conditions: route sc
MDA-MB-231 [8] = assay: Induction of ER stress in human MDA-MB-231 cells assessed as activation of CHOP protein level incubated for 24 hrs by Western blot analysis; format: functional, cell-based; conditions: dose 0.5-2 µM
MDA-MB-231 [9] = assay: Induction of ER stress in human MDA-MB-231 cells assessed as activation of Xbp-1s protein level incubated for 24 hrs by Western blot analysis; format: functional, cell-based; conditions: dose 0.5-2 µM
MDA-MB-231 [10] = assay: Antiproliferative activity against human MDA-MB-231 cells xenografted in female BALB/c mouse model assessed as fold change in upregulation of BAX protein level at 5 mg/kg administered subcutaneously incubated for 24 hrs by Western blot analysis (reference value: 1.00%); format: functional; conditions: route sc
[11] = Toxicity in female BALB/c mouse xenografted with human BT-549 cells assessed as effect on pathological changes in kidney at 5 to 20 mg/kg, sc by H and E staining based analysis; format: organism-based; conditions: in vivo, dose 5-20 mg/kg
[12] = target: Eukaryotic translation initiation factor 3 subunit D (Homo sapiens) (UniProt O15371); assay: Induction of thermal stabilization of EIF3D in human MDA-MB-231 cells at 1 uM by CETSA analysis; format: cell-based
Chain of Eukaryotic translation initiation factor 3 subunit D (Homo sapiens) (O15371 whole entry): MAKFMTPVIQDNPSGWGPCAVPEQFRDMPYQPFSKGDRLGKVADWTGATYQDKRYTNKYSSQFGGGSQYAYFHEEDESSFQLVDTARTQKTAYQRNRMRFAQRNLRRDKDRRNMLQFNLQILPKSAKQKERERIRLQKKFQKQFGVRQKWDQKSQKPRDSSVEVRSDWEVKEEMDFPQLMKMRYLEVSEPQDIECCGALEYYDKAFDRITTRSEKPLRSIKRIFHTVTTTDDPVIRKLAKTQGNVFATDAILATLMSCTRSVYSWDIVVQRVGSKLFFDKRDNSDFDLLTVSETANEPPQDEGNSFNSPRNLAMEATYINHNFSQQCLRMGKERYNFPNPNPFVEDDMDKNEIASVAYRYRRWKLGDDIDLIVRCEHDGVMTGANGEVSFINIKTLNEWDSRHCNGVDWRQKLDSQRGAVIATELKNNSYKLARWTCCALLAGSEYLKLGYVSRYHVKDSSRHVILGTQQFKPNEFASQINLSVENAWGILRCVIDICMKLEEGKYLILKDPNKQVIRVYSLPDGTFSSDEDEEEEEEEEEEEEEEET

[13] = Toxicity in female BALB/c mouse xenografted with human BT-549 cells assessed as effect on pathological changes in spleen at 5 to 20 mg/kg, sc by H and E staining based analysis; format: organism-based; conditions: in vivo, dose 5-20 mg/kg
MDA-MB-231 [14] = assay: Induction of apoptosis in human MDA-MB-231 cells assessed as viable cells at 2 uM incubated for 24 hrs by Annexin V-PI staining based flow cytometric analysis (reference value: 96.5%); format: functional; conditions: read-out: Activity
MDA-MB-231 [15] = assay: Induction of apoptosis in human MDA-MB-231 cells assessed as viable cells at 0.5 uM incubated for 24 hrs by Annexin V-PI staining based flow cytometric analysis (reference value: 96.5%); format: functional; conditions: read-out: Activity
[16] = Toxicity in female BALB/c mouse xenografted with human MDA-MB-231 cells assessed as effect on pathological changes in spleen at 5 to 20 mg/kg, sc by H and E staining based analysis; format: organism-based; conditions: in vivo, dose 5-20 mg/kg
MDA-MB-231 [17] = assay: Induction of apoptosis in human MDA-MB-231 cells assessed as necrotic cells at 2 uM incubated for 24 hrs by Annexin V-PI staining based flow cytometric analysis (reference value: 1.29%); format: functional
MDA-MB-231 [18] = assay: Induction of apoptosis in human MDA-MB-231 cells assessed as upregulation of Bax expression at 0.5 to 2 uM incubated for 24 hrs by Western blot analysis; format: functional, cell-based; conditions: dose 0.5-2 µM
MDA-MB-231 [19] = assay: Inhibition of cell migration in human MDA-MB-231 assessed as reduction in wound healing ability at 0 to 2 uM incubated for 48 hrs by Wound healing assay; format: functional, cell-based; conditions: dose 0-2 µM
MDA-MB-231 [20] = assay: Induction of apoptosis in human MDA-MB-231 cells assessed as early apoptotic cells at 1 uM incubated for 24 hrs by Annexin V-PI staining based flow cytometric analysis (reference value: 0.42%); format: functional
BT-549 [21] = assay: Induction of apoptosis in human BT-549 cells assessed as early apoptotic cells at 0.5 uM incubated for 24 hrs by Annexin V-PI staining based flow cytometric analysis (reference value: 0.78%); format: functional
MDA-MB-231 [22] = assay: Induction of apoptosis in human MDA-MB-231 cells assessed as late apoptotic cells at 2 uM incubated for 24 hrs by Annexin V-PI staining based flow cytometric analysis (reference value: 1.83%); format: functional
BT-549 [23] = assay: Inhibition of cell migration in human BT-549 cells assessed as decrease in MMP-2 level incubated for 24 hrs by Western blot analysis; format: functional, cell-based; conditions: dose 0.5-2 µM
BT-549 [24] = assay: Antitumor activity against human BT-549 cells xenografted in female BALB/c mouse model assessed as reduction in tumor volume administered subcutaneously and measured every day; format: functional, cell-based; conditions: dose 5-20 mg/kg, route sc
MDA-MB-231 [25] = assay: Inhibition of DNA replication in human MDA-MB-231 cells assessed as reduction in EDU fluorescence intensity by EDU staining based fluorescence microscopic analysis; format: functional, cell-based; conditions: dose 0.5-2 µM
MDA-MB-231 [26] = assay: Antiproliferative activity against human MDA-MB-231 cells xenografted in female BALB/c mouse model assessed as fold change in cleavage of caspase-3 level at 10 mg/kg administered subcutaneously incubated for 24 hrs by Western blot analysis (reference value: 1.00%); format: functional; conditions: route sc
MDA-MB-231 [27] = assay: Inhibition of cell proliferation in human MDA-MB-231 cells assessed as reduction in Ki-67 expression at 0.5 to 2 uM incubated for 24 hrs by DAPI staining based immunofluorescence analysis; format: functional; conditions: dose 0.5-2 µM
BT-549 [28] = assay: Inhibition of cell migration in human BT-549 cells assessed as increase in E-cadherin level by incubated for 24 hrs by Western blot analysis; format: functional, cell-based; conditions: dose 0.5-2 µM
BT-549 [29] = assay: Induction of apoptosis in human BT-549 cells assessed as viable cells at 2 uM incubated for 24 hrs by Annexin V-PI staining based flow cytometric analysis (reference value: 93.0%); format: functional; conditions: read-out: Activity
BT-549 [30] = assay: Induction of ER stress in human BT-549 cells assessed as activation of Xbp-1s protein level incubated for 24 hrs by Western blot analysis; format: functional, cell-based; conditions: dose 0.5-2 µM
MDA-MB-231 [31] = assay: Inhibition of tumor sphere formation in human MDA-MB-231 cells at 1 uM incubated for 24 hrs by microscopic analysis; format: functional, cell-based
MDA-MB-231 [32] = assay: Induction of apoptosis in human MDA-MB-231 cells assessed as upregulation of cleavage of caspase-3 expression at 0.5 to 2 uM incubated for 24 hrs by Western blot analysis; format: functional, cell-based; conditions: dose 0.5-2 µM
MDA-MB-231 [33] = assay: Antitumor activity against human MDA-MB-231 cells xenografted in female BALB/c mouse model assessed as reduction of proliferation rate of tumor at 5 to 20 mg/kg administered subcutaneously and measured every day; format: functional, organism-based; conditions: dose 5-20 mg/kg, route sc

For `CC(C)=CCC/C(C)=C/[C@H]1OC(=O)CC12C[C@H](OC(=O)Cc1ccc(NC(=O)/C=C/c3ccccc3)cc1)C=CC2=O` (some centres undefined), the Activity [1] was “Non-Toxic”, the inhibition (BT-549 [2]) was “Active” and the Activity (Mitochondrial membrane) was 43.2%. The Activity (BT-549 [3]) was “Active”, the Activity (BT-549 [4]) was “Active” and the Activity [5] was “Non-Toxic”. For the same compound, the Activity (BT-549 [6]) was “Active”, the “fold change (FC)” value (BT-549 [7]) was 0.16 and the Activity (MDA-MB-231 [8]) was “Dose-Dependent Effect”. The Activity (MDA-MB-231 [9]) was “Active”, the “fold change (FC)” value (MDA-MB-231 [10]) was 1.05 and the Activity [11] was “Non-Toxic”. The Activity [12] was “Active”, the Activity [13] was “Non-Toxic” and the viability at 2 µM (MDA-MB-231 [14]) was 48.8%. For the same compound, the viability at 0.5 µM (MDA-MB-231 [15]) was 70.1%, the Activity [16] was “Non-Toxic” and the Activity (MDA-MB-231 [17]) was 6.53%. The Activity (MDA-MB-231 [18]) was “Active”, the inhibition (MDA-MB-231 [19]) was “Active” and the Activity (MDA-MB-231 [20]) was 0.97%. The Activity (BT-549 [21]) was 0.91%, the Activity (MDA-MB-231 [22]) was 42.4% and the inhibition (BT-549 [23]) was “Dose-Dependent Effect”. The Activity (BT-549 [24]) was “Dose-Dependent Effect”, the inhibition (MDA-MB-231 [25]) was “Dose-Dependent Effect” and the “fold change (FC)” value (MDA-MB-231 [26]) was 1.67. The inhibition (MDA-MB-231 [27]) was “Active”, the inhibition (BT-549 [28]) was “Dose-Dependent Effect” and the viability at 2 µM (BT-549 [29]) was 34.8%. For the same compound, the Activity (BT-549 [30]) was “Active”, the inhibition (MDA-MB-231 [31]) was “Active” and the Activity (MDA-MB-231 [32]) was “Active”. For the same compound, the Activity (MDA-MB-231 [33]) was “Active”.
